# Reference: article doi:10.1101/2024.07.26.605352v1, “In-vitro Metabolite Identification for MEDI7219, an Oral GLP-1 Peptide, using LC-MS/MS with CID and EAD Fragmentation” (bioRxiv, 2024)
# Experiments:
# [1] = test system: pancreatin; settings: result in words; ref Pechenov et al., 2021; cited from earlier work
# Source text: Systematic multi-disciplinary approach to engineering led to rational selection of the clinical lead, MEDI7219, a GLP-1 peptide with bis-lipidation and 12 amino acid substitutions and 5 α- methyl modifications ([Pechenov et al., 2021]). […] This measurement was done using HPLC with MEDI7219 detection by UV absorption at 210 nm. In this study, we identified key metabolites from MEDI7219 ... || For relative quantification, after correlation analysis in MP software and exporting XIC peak areas, we calculated fractional abundance of each metabolite over the incubation period (Figure 4). This was taken as a percent of XIC peak area of each metabolite over total peak area of all metabolites at a given timepoint (Table S2). Parent peptide decreased quickly in this experiment compared to the 60 % remained intact after 2 h in previous publication ([Pechenov et al., 2021]). The enzyme to substrate ratio was higher in this study compared to Pechenov et al. as the assay condition was optimized ...
# [2] = test system: Pancreatin from porcine pancreas; assay: In vitro incubation of MEDI7219 with pancreatin in PBS, LC-MS/MS metabolite identification and relative quantification; type: in vitro ADME; settings: for Time at which fractional abundance peaked: pancreatin 3 mg/ml in PBS, 37 °C, sampling 0.5-6 h
# Protocol: MEDI7219 solution (10 µg/ml) was incubated with pancreatin (3 mg/ml) in pre-warmed PBS buffer at 37 °C for 0.5 h, 1 h, 2 h, 4 h and 6 h. A negative control sample was prepared as pancreatin in PBS buffer without MEDI7219 spiked in. A time zero sample was prepared as MEDI7219 in PBS without pancreatin. At each time point, 100 µl was sampled and quenched with 200 µl of acetonitrile. The quenched solution was centrifuged at 6000 g for 10 min. Supernatant was diluted 5-fold in mobile phase A (0.1 % formic acid in water) and 40 µl was injected to LC-MS/MS. Same LC-MS system was used here as structural characterization experiment. A longer LC gradient was applied where 20 % B was increased to 60 % B within 8 min.
# For MS method, DDA (data dependent acquisition) experiment was used where ions in range of 800-1250 Da were selected for MS/MS. Same key settings for CID and EAD established in the structural characterization experiment described above were applied in MS method here.
# Data were analyzed using Molecule Profiler beta version 1.3.2 (MP, SCIEX) beta version. Raw data from incubation at each time point was analyzed against the pancreatin blank sample in the MP software. […] Amino acid sequence for MEDI7219 was entered as a processing parameter. Non-natural amino acids including α-methyl-L-alanine, α-methyl-L-phenylalanine, α-methyl-L-serine, α-methyl-L-lysine, as well as side-chain lipid on lysine (C35H63N5O11) were added as custom elements by providing molecular formula in the software. Peptide method was used to match all peptide fragment peaks with full lipid side chain. Both MS1 and MS2 were used for peak finding based on mass tolerance of 15 ppm. For MS parameters, charge states 2-5 were included in the search. For MS/MS parameters, theoretical b, y, c’, z· as well as y|a and y|b internal fragment ions were searched with mass tolerance of 15 ppm. Default Biologics biotransformation set was used in the processing method. For quantification, all isotope peaks as part of a cluster and multiple charge states of the same peptide were summed for peak area. Results from individual timepoints were consolidated in Correlation analysis with 0.1 min retention time (RT) tolerance and 15 ppm m/z tolerance to yield the final list of metabolites and peak areas from all samples.
# Pancreatin was chosen for the in vitro evaluation because the site of maximal gastrointestinal absorption for MEDI7219 oral peptide was small intestine and proximal colon ([Pechenov et al., 2021]). […]
# For relative quantification, after correlation analysis in MP software and exporting XIC peak areas, we calculated fractional abundance of each metabolite over the incubation period (Figure 4). […]
# [3] = result in words; ref Pechenov et al., 2021; cited from earlier work
# Source text: Semaglutide was the first approved oral GLP-1 receptor agonist ([Mahapatra et al., 2022]) and it incorporated peptide engineering approaches such as unnatural amino acid substitution to protect proteolytic sites, and lipidation to promote plasma protein binding to reduce renal clearance.
substance,measurement,setting,value
"HαAEGSαFTSDVαSSsidechainKLEGEAAαKEαFIAsidechainK VVEGG [MEDI7219, orally-bioavailable GLP-1 peptide with bis-lipidation, 12 amino acid substitutions and 5 α-methyl modifications; clinical candidate]",Proteolytic stability compared with wild type or semaglutide,[1],proteolytically more stable than the wild type or semaglutide
same,Parent peptide in metabolite chromatograms over pancreatin incubation,"[2]; summed XIC chromatograms, 0-6 h, CID data, result in words","still present at 0.5 h although no longer the prominent species, and it decreased significantly after 2 h"
same,Number of distinct cleavage sites,[2]; the 13 metabolites mapped on the MEDI7219 structure,8
semaglutide,Degradation in GI tract,[3],rapidly degraded in GI tract
"HαAEGSαFTSDVαSSsidechainK [Metabolite M13, metabolite of MEDI7219 identified after incubation with pancreatin]",Time at which fractional abundance peaked,[2],0.5 h
"HαAEGSαFTSDVαSSsidechainKLEGEAAαKEαFIAsidechainK [Metabolite M2, metabolite of MEDI7219 identified after incubation with pancreatin]",Time at which fractional abundance peaked,[2],0.5 h
